Columns and labels:
bedstraw = assay: Test B pre/postemergence bedstraw; assay type: in vivo, Galium aparine; conditions: Preemergence
Outline: (§1)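 Test chemicals in a non-phytotoxic solvent mixture with surfactant were sprayed preemergence onto planted seeds and postemergence onto plants 2 to 18 cm tall (1- to 4-leaf stage). After twelve to sixteen days in a greenhouse, injury was visually rated against untreated controls from 0 (no effect) to 10 (complete control).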

blackgrass = assay: Test B pre/postemergence blackgrass; assay type: in vivo, Alopecurus myosuroides; conditions: for Blackgrass plant response rating: scale of 0 to 10 where 0 is no effect and 10 is complete control
Outline: as §1

surinam grass = assay: Test B pre/postemergence surinam grass; assay type: in vivo, Brachiaria decumbens; conditions: for B. signalgrass plant response rating: scale of 0 to 10 where 0 is no effect and 10 is complete control
Outline: as §1

cocklebur = assay: Test B pre/postemergence cocklebur; assay type: in vivo, Xanthium strumarium; conditions: for Cocklebur plant response rating: scale of 0 to 10 where 0 is no effect and 10 is complete control
Outline: as §1

corn = assay: Test B pre/postemergence corn; assay type: in vivo, Zea mays; conditions: for Corn plant response rating: scale of 0 to 10 where 0 is no effect and 10 is complete control
Outline: as §1

crabgrass = assay: Test B pre/postemergence crabgrass; assay type: in vivo, Digitaria sanguinalis; conditions: for Crabgrass plant response rating: scale of 0 to 10 where 0 is no effect and 10 is complete control
Outline: as §1

giant foxtail = assay: Test B pre/postemergence giant foxtail; assay type: in vivo, Setaria faberii; conditions: for Giant foxtail plant response rating: scale of 0 to 10 where 0 is no effect and 10 is complete control
Outline: as §1

pigweed = assay: Test B pre/postemergence pigweed; assay type: in vivo, Amaranthus retroflexus; conditions: for Redroot pigweed plant response rating: scale of 0 to 10 where 0 is no effect and 10 is complete control
Outline: as §1

soybean = assay: Test B pre/postemergence soybean; assay type: in vivo, Glycine max; conditions: for Soybean plant response rating: scale of 0 to 10 where 0 is no effect and 10 is complete control
Outline: as §1

sugar beet = assay: Test B pre/postemergence sugar beet; assay type: in vivo, Beta vulgaris; conditions: for Sugarbeets plant response rating: scale of 0 to 10 where 0 is no effect and 10 is complete control
Outline: as §1

velvetleaf = assay: Test B pre/postemergence velvetleaf; assay type: in vivo, Abutilon theophrasti; conditions: for Velvetleaf plant response rating: scale of 0 to 10 where 0 is no effect and 10 is complete control
Outline: as §1

wild oat = assay: Test B pre/postemergence wild oat; assay type: in vivo, Avena fatua; conditions: for Wild oats plant response rating: scale of 0 to 10 where 0 is no effect and 10 is complete control
Outline: as §1

purple nutsedge = assay: Test B pre/postemergence purple nutsedge; assay type: in vivo, Cyperus rotundus; conditions: for Nutsedge plant response rating: scale of 0 to 10 where 0 is no effect and 10 is complete control
Outline: as §1

rice = assay: Test B flood test rice; assay type: in vivo, Oryza sativa
Outline: (§2)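 Each value is a visual injury score relative to controls, with 10 meaning complete control and 0 no effect. Evaluation took place twelve to sixteen days after the 2-leaf-stage plants were treated and kept in the greenhouse.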

smallflower flatsedge = assay: Test B flood test smallflower flatsedge; assay type: in vivo, Cyperus difformis
Outline: as §2

bamyardgrass = assay: Test B flood test barnyardgrass; assay type: in vivo, Echinochloa crus-galli
Outline: as §2

[1] = Postemergence, Rate 125 g/ha, scale 0 to 10, 0 is no effect, 10 is complete control
[2] = Postemergence, Rate 250 g/ha, scale 0 to 10, 0 is no effect, 10 is complete control
[3] = Preemergence, Rate 62 g/ha, scale 0 to 10 (0 no effect, 10 complete control)
[4] = Rate 500 g/ha, Postemergence, scale 0 to 10, 0 no effect, 10 complete control
[5] = Rate 62 g/ha, flood test species, Pre-emergence, visual evaluation after twelve to sixteen days
[6] = Rate 125 g/ha, under heading Pre-emergence, flood test species, visual evaluation after twelve to sixteen days
[7] = Rate 250 g/ha, Pre-emergence, flood-test species, scale 0 to 10, 0 is no effect, 10 is complete control
[8] = Rate 500 g/ha, Pre-emergence, flood test species, scale 0 to 10 (0 no effect, 10 complete control)

With `Cc1nsc(Cl)c1Cn1c(=O)on(C(=O)N(c2ccccc2)C(C)C)c1=O` [Compound 374] the “Plant response rating, Bedstraw” value (bedstraw; Rate 62 g/ha, scale 0 to 10 (0 no effect, 10 complete control)) was 0, the “Bedstraw plant response rating (0 to 10 scale)” value (bedstraw; Rate 125 g/ha) was 0 and the “Bedstraw plant response rating” value (bedstraw; Rate 250 g/ha, scale of 0 to 10 where 0 is no effect and 10 is complete control) was 0. The “Plant response rating, Blackgrass” value (blackgrass; [1]) was 0, the “Plant response rating, Blackgrass” value (blackgrass; [2]) was 0 and the “Plant response rating, Blackgrass” value (blackgrass; [3]) was 0. The “Blackgrass plant response rating (0 to 10 scale)” value (blackgrass; Preemergence, Rate 125 g/ha) was 2, the “Blackgrass plant response rating” value (blackgrass; Preemergence, Rate 250 g/ha) was 5 and the “Blackgrass plant response rating” value (blackgrass; Preemergence, Rate 500 g/ha) was 6. The “Blackgrass plant response rating” value (blackgrass; Rate 62 g/ha, Postemergence) was 0, the “Plant response rating, B. signalgrass” value (surinam grass; [1]) was 0 and the “Plant response rating, B. signalgrass” value (surinam grass; [2]) was 0. For the same compound, the “Plant response rating, B. signalgrass” value (surinam grass; [3]) was 0, the “B. signalgrass plant response rating (0 to 10 scale, 0 is no effect, 10 is complete control)” value (surinam grass; Preemergence, Rate 125 g/ha) was 0 and the “B. signalgrass plant response rating” value (surinam grass; Preemergence, Rate 250 g/ha) was 2. The “B. signalgrass plant response rating” value (surinam grass; Preemergence, Rate 500 g/ha) was 5, the “B. signalgrass plant response rating” value (surinam grass; Rate 62 g/ha, Postemergence) was 0 and the “Plant response rating, B. signalgrass” value (surinam grass; [4]) was 0. The “Plant response rating, Cocklebur” value (cocklebur; [1]) was 0, the “Plant response rating, Cocklebur” value (cocklebur; [2]) was 0 and the “Plant response rating, Cocklebur” value (cocklebur; [3]) was 0. The “Cocklebur plant response rating (0 to 10 scale)” value (cocklebur; Preemergence, Rate 125 g/ha) was 0, the “Cocklebur plant response rating” value (cocklebur; Preemergence, Rate 250 g/ha) was 0 and the “Cocklebur plant response rating” value (cocklebur; Preemergence, Rate 500 g/ha) was 0. The “Cocklebur plant response rating” value (cocklebur; Rate 62 g/ha, Postemergence) was 0, the “Plant response rating, Cocklebur” value (cocklebur; [4]) was 0 and the “Plant response rating, Corn” value (corn; [1]) was 0. The “Plant response rating, Corn” value (corn; [2]) was 0, the “Plant response rating, Corn” value (corn; [3]) was 0 and the “Corn plant response rating (0 to 10 scale)” value (corn; Preemergence, Rate 125 g/ha) was 0. For the same compound, the “Corn plant response rating” value (corn; Preemergence, Rate 250 g/ha) was 0, the “Corn plant response rating” value (corn; Preemergence, Rate 500 g/ha) was 0 and the “Corn plant response rating” value (corn; Rate 62 g/ha, Postemergence) was 0. For the same compound, the “Plant response rating, Corn” value (corn; [4]) was 0, the “Plant response rating, Crabgrass” value (crabgrass; [1]) was 0 and the “Plant response rating, Crabgrass” value (crabgrass; [2]) was 0. For the same compound, the “Plant response rating, Crabgrass” value (crabgrass; [3]) was 6, the “Crabgrass plant response rating (0 to 10 scale)” value (crabgrass; Preemergence, Rate 125 g/ha) was 6 and the “Crabgrass plant response rating” value (crabgrass; Preemergence, Rate 250 g/ha) was 9. For the same compound, the “Crabgrass plant response rating” value (crabgrass; Preemergence, Rate 500 g/ha) was 9, the “Crabgrass plant response rating” value (crabgrass; Rate 62 g/ha, Postemergence) was 0 and the “Plant response rating, Crabgrass” value (crabgrass; [4]) was 3. The “Plant response rating, Giant foxtail” value (giant foxtail; [1]) was 0, the “Plant response rating, Giant foxtail” value (giant foxtail; [2]) was 2 and the “Plant response rating, Giant foxtail” value (giant foxtail; [3]) was 8. The “Giant foxtail plant response rating (0 to 10 scale)” value (giant foxtail; Preemergence, Rate 125 g/ha) was 9, the “Giant foxtail plant response rating” value (giant foxtail; Preemergence, Rate 250 g/ha) was 10 and the “Giant foxtail plant response rating” value (giant foxtail; Preemergence, Rate 500 g/ha) was 10. For the same compound, the “Giant foxtail plant response rating” value (giant foxtail; Rate 62 g/ha, Postemergence) was 0, the “Plant response rating, Giant foxtail” value (giant foxtail; [4]) was 8 and the “Plant response rating, Redroot pigweed” value (pigweed; [1]) was 0. The “Plant response rating, Redroot pigweed” value (pigweed; [2]) was 2, the “Plant response rating, Redroot pigweed” value (pigweed; [3]) was 0 and the “Redroot pigweed plant response rating (0 to 10 scale)” value (pigweed; Preemergence, Rate 125 g/ha) was 0. For the same compound, the “Redroot pigweed plant response rating” value (pigweed; Preemergence, Rate 250 g/ha) was 0, the “Redroot pigweed plant response rating” value (pigweed; Rate 62 g/ha, Postemergence) was 0 and the “Plant response rating, Redroot pigweed” value (pigweed; [4]) was 6. For the same compound, the “Plant response rating, Soybean” value (soybean; [1]) was 2, the “Plant response rating, Soybean” value (soybean; [2]) was 2 and the “Plant response rating, Soybean” value (soybean; [3]) was 0. For the same compound, the “Soybean plant response rating (0 to 10 scale)” value (soybean; Preemergence, Rate 125 g/ha) was 0, the “Soybean plant response rating” value (soybean; Preemergence, Rate 250 g/ha) was 0 and the “Soybean plant response rating” value (soybean; Preemergence, Rate 500 g/ha) was 0. The “Soybean plant response rating” value (soybean; Rate 62 g/ha, Postemergence) was 2, the “Plant response rating, Soybean” value (soybean; [4]) was 4 and the “Plant response rating, Sugarbeets” value (sugar beet; [1]) was 0. The “Plant response rating, Sugarbeets” value (sugar beet; [2]) was 0, the “Plant response rating, Sugarbeets” value (sugar beet; [3]) was 0 and the “Sugarbeets plant response rating (0 to 10 scale)” value (sugar beet; Preemergence, Rate 125 g/ha) was 0. For the same compound, the “Sugarbeets plant response rating” value (sugar beet; Preemergence, Rate 250 g/ha) was 0, the “Sugarbeets plant response rating” value (sugar beet; Preemergence, Rate 500 g/ha) was 4 and the “Sugarbeets plant response rating” value (sugar beet; Rate 62 g/ha, Postemergence) was 0. The “Plant response rating, Sugarbeets” value (sugar beet; [4]) was 4, the “Plant response rating, Velvetleaf” value (velvetleaf; [1]) was 0 and the “Plant response rating, Velvetleaf” value (velvetleaf; [2]) was 0. The “Plant response rating, Velvetleaf” value (velvetleaf; [3]) was 0, the “Velvetleaf plant response rating (0 to 10 scale)” value (velvetleaf; Preemergence, Rate 125 g/ha) was 0 and the “Velvetleaf plant response rating” value (velvetleaf; Preemergence, Rate 250 g/ha) was 0. For the same compound, the “Velvetleaf plant response rating” value (velvetleaf; Preemergence, Rate 500 g/ha) was 0, the “Velvetleaf plant response rating” value (velvetleaf; Rate 62 g/ha, Postemergence) was 0 and the “Plant response rating, Velvetleaf” value (velvetleaf; [4]) was 1. The “Plant response rating, Wild oats” value (wild oat; [1]) was 0, the “Plant response rating, Wild oats” value (wild oat; [2]) was 0 and the “Plant response rating, Wild oats” value (wild oat; [3]) was 0. For the same compound, the “Wild oats plant response rating (0 to 10 scale)” value (wild oat; Preemergence, Rate 125 g/ha) was 0, the “Wild oats plant response rating” value (wild oat; Preemergence, Rate 250 g/ha) was 0 and the “Wild oats plant response rating” value (wild oat; Preemergence, Rate 500 g/ha) was 0. For the same compound, the “Wild oats plant response rating” value (wild oat; Rate 62 g/ha, Postemergence) was 0, the “Plant response rating, Nutsedge” value (purple nutsedge; [1]) was 0 and the “Plant response rating, Nutsedge” value (purple nutsedge; [2]) was 0. For the same compound, the “Plant response rating, Nutsedge” value (purple nutsedge; [3]) was 0, the “Nutsedge plant response rating (0 to 10 scale)” value (purple nutsedge; Preemergence, Rate 125 g/ha) was 0 and the “Nutsedge plant response rating” value (purple nutsedge; Preemergence, Rate 250 g/ha) was 0. The “Nutsedge plant response rating” value (purple nutsedge; Preemergence, Rate 500 g/ha) was 0, the “Nutsedge plant response rating” value (purple nutsedge; Rate 62 g/ha, Postemergence) was 0 and the “Plant response rating, Nutsedge” value (purple nutsedge; [4]) was 0. The “Plant response rating, Rice (0 to 10 scale, 0 is no effect, 10 is complete control)” value (rice; [5]) was 0, the “Rice plant response rating (0 to 10 scale, 0 is no effect, 10 is complete control)” value (rice; [6]) was 0 and the “Rice plant response rating” value (rice; [7]) was 0. For the same compound, the “Rice plant response rating” value (rice; [8]) was 0, the “Plant response rating, S. Flatsedge (0 to 10 scale, 0 is no effect, 10 is complete control)” value (smallflower flatsedge; [5]) was 0 and the “S. Flatsedge plant response rating (0 to 10 scale, 0 is no effect, 10 is complete control)” value (smallflower flatsedge; [6]) was 0. For the same compound, the “S. Flatsedge plant response rating” value (smallflower flatsedge; [7]) was 0, the “S. Flatsedge plant response rating” value (smallflower flatsedge; [8]) was 0 and the “Plant response rating, Barnyardgrass (0 to 10 scale, 0 is no effect, 10 is complete control)” value (bamyardgrass; [5]) was 0. The “Barnyardgrass plant response rating (0 to 10 scale, 0 is no effect, 10 is complete control)” value (bamyardgrass; [6]) was 0, the “Barnyardgrass plant response rating” value (bamyardgrass; [7]) was 0 and the “Barnyardgrass plant response rating” value (bamyardgrass; [8]) was 0.
